Activity calls are given as the source filed them. The rule behind the calls is not given here.
Legend:
[1] = test system: A549; test: Inhibition of cell invasion in human A549 cells measured for 24 hrs by Transwell assay; type: functional, cell-based; details: dose 50-100 nM
[2] = Toxicity in ICR mouse assessed as effect on lymphocytes count at 10 to 40 mg/kg, iv administered every 2 days and measured after 14 days; type: organism-based; details: in vivo, 336 h, dose 10-40 mg/kg, time 14 day
[3] = molecular target: T1, Tubulin (Homo sapiens) (UniProt P68371+Q9H4B7+P0DPH7+P68366+Q13509+Q71U36+P04350+Q3ZCM7+P07437+P68363+Q9BQE3+Q6PEY2+Q13885+Q9BVA1+Q9BUF5); test: Inhibition of tubulin polymerization in human HT-29 cells assessed as downregulation of acetylated alpha-tubulin expression 50 to 200 nM incubated for 24 hrs by Western blot analysis; type: cell-based; details: dose 50-200 nM
[4] = test system: HT-29; test: Induction of apoptosis in human HT-29 cells assessed as late apoptotic cells at 200 nM incubated for 24 hrs by FITC/PI staining based flow cytometry analysis (reference value: 0.20%); type: functional
[5] = test system: HT-29; test: Induction of apoptosis in human HT-29 cells assessed as viable cells at 100 nM incubated for 24 hrs by FITC/PI staining based flow cytometry analysis (reference value: 91.6%); type: functional; details: read-out: Activity
[6] = test system: RKO; test: Antiproliferative activity against human RKO cells assessed as cell viability incubated for 72 hrs by MTT assay; type: functional, cell-based
[7] = test system: PC-3; test: Antiproliferative activity against human PC-3 cells assessed as cell viability incubated for 72 hrs by MTT assay; type: functional, cell-based; details: PC-3, 72 h
[8] = AUC (0 to t) in Sprague-Dawley rat at 5 mg/kg, iv measured upto 24 hrs by HPLC-MS analysis; type: ADME, organism-based; details: in vivo
[9] = test system: HT-29; test: Antitumor activity against human HT-29 cells xenografted in BALB/c mouse assessed as tumor growth inhibition at 40 mg/kg, iv measured after 21 days; type: functional; details: HT-29, 504 h, time 21 day, read-out: TGI
[10] = test system: MDA-MB-231; test: cells; details: Homo sapiens, MDA-MB-231, 72 h
Description: Antiproliferative activity against human MDA-MB-231 cells assessed as cell viability incubated for 72 hrs by MTT assay

[11] = test system: HT-29; test: Induction of apoptosis in human HT-29 cells assessed as late apoptotic cells at 50 nM incubated for 24 hrs by FITC/PI staining based flow cytometry analysis (reference value: 0.20%); type: functional
[12] = Clerance in Sprague-Dawley rat at 5 mg/kg, iv measured upto 24 hrs by HPLC-MS analysis; type: ADME, organism-based; details: in vivo
[13] = test system: MCF7; test: Antiproliferative activity against human MCF7 cells assessed as cell viability incubated for 72 hrs by MTT assay; type: functional, cell-based; details: MCF7, 72 h
[14] = test system: HT-29; test: Antitumor activity against human HT-29 cells xenografted in BALB/c mouse assessed as reduction in CD31 expression at 10 to 40 mg/kg, iv measured after 21 days by immunohistochemical analysis; type: functional, organism-based; details: dose 10-40 mg/kg, time 21.0 day
[15] = test system: HT-29; test: Induction of cell cycle arrest in human HT-29 cells assessed as reduction in p-CDC2 expression incubated for 24 hrs by Western blot analysis; type: functional, cell-based; details: dose 50-200 nM
[16] = Toxicity in ICR mouse assessed as effect on ALT level at 10 to 40 mg/kg, iv administered every 2 days and measured after 14 days; type: organism-based; details: in vivo, 336 h, dose 10-40 mg/kg, time 14 day
[17] = Toxicity in BALB/c mouse assessed as liver damage at 10 to 40 mg/kg, iv measured after 21 days by H and E staining based analysis; type: organism-based; details: in vivo, 504 h, dose 10-40 mg/kg, time 21 day
[18] = test system: A549; test: Inhibition of cell migration in human A549 cells incubated for 24 hrs by wound healing assay; type: functional, cell-based; details: dose 50-100 nM
[19] = test system: Mitochondrial membrane; test: Induction of mitochondrial membrane potential loss in human HT-29 cells assessed as decrease in red fluorescence at 50 to 100 nM incubated for 24 hrs by JC-1 staining based confocal microscopic analysis; type: cell membranes; details: dose 50-100 nM
[20] = test system: HT-29; test: Induction of cell cycle arrest in human HT-29 cells assessed as accumulation of cells at G2 phase at 200 nM incubated for 24 hrs by flow cytometry analysis (reference value: 13 %); type: functional
[21] = Toxicity in BALB/c mouse assessed as heart damage at 10 to 40 mg/kg, iv measured after 21 days by H and E staining based analysis; type: organism-based; details: in vivo, 504 h, dose 10-40 mg/kg, time 21 day
[22] = Toxicity in ICR mouse assessed as effect on LDH level at 10 to 40 mg/kg, iv administered every 2 days and measured after 14 days; type: organism-based; details: in vivo, 336 h, dose 10-40 mg/kg, time 14 day
[23] = test system: HT-29; test: Induction of apoptosis in human HT-29 cells assessed as upregulation of cleaved PARP level at 50 to 200 nM incubated for 24 hrs by Western blot analysis; type: functional, cell-based; details: dose 50-200 nM
[24] = test system: HT-29; test: Induction of apoptosis in human HT-29 cells assessed as late apoptotic cells at 100 nM incubated for 24 hrs by FITC/PI staining based flow cytometry analysis (reference value: 0.20%); type: functional
[25] = Toxicity in BALB/c mouse assessed as spleen damage at 10 to 40 mg/kg, iv measured after 21 days by H and E staining based analysis; type: organism-based; details: in vivo, 504 h, dose 10-40 mg/kg, time 21 day
[26] = Volume of distribution at steady state in Sprague-Dawley rat at 5 mg/kg, iv measured upto 24 hrs by HPLC-MS analysis; type: ADME, organism-based; details: in vivo, read-out: Vdss
[27] = molecular target: T1, Tubulin (Homo sapiens); test: Disruption of microtubule network in human HT-29 cells incubated for 8 hrs by DAPI staining based confocal microscopic analysis; type: cell-based; details: dose 50-200 nM
[28] = Resistance index, ratio of IC50 for human A549/TxR cells to IC50 for human A549 cells; type: functional
[29] = test system: Mitochondrial membrane; test: Induction of mitochondrial membrane potential loss in human HT-29 cells incubated for 24 hrs by JC-1 staining based confocal microscopic analysis; type: cell membranes; details: dose 50-100 nM
[30] = molecular target: T1, Tubulin (Homo sapiens); test: Inhibition of tubulin polymerization in human HT-29 cells assessed as upregulation of DeY- alpha-tubulin expression 50 to 200 nM incubated for 24 hrs by Western blot analysis; type: cell-based; details: dose 50-200 nM
[31] = molecular target: T1, Tubulin (Homo sapiens); test: Binding affinity to Tubulin colchicine binding site in human HT-29 cells assessed as inhibition of EBI-beta-tubulin adduct formation at 1 to 100 uM preincubated with compound for 2 hrs followed by EBI addition measured after 1.5 hrs by EBI competition based Western blotting analysis; type: cell-based; details: dose 1-100 µM, time 3.5 hrs
[32] = test system: HT-29; test: Inhibition of colony formation in human HT-29 cells; type: functional, cell-based; details: dose 25-200 nM
[33] = Toxicity in ICR mouse assessed as effect on CREA level at 10 to 40 mg/kg, iv administered every 2 days and measured after 14 days; type: organism-based; details: in vivo, 336 h, dose 10-40 mg/kg, time 14 day
[34] = Toxicity in ICR mouse assessed as effect on CK level at 10 to 40 mg/kg, iv administered every 2 days and measured after 14 days; type: organism-based; details: in vivo, 336 h, dose 10-40 mg/kg, time 14 day
[35] = Toxicity in ICR mouse assessed as effect on BUN level at 10 to 40 mg/kg, iv administered every 2 days and measured after 14 days; type: organism-based; details: in vivo, 336 h, dose 10-40 mg/kg, time 14 day
[36] = Toxicity in ICR mouse assessed as effect on WBC count at 10 to 40 mg/kg, iv administered every 2 days and measured after 14 days; type: organism-based; details: in vivo, 336 h, dose 10-40 mg/kg, time 14 day
[37] = test system: HT-29; test: Induction of cell cycle arrest in human HT-29 cells assessed as accumulation of cells at S phase at 200 nM incubated for 24 hrs by flow cytometry analysis (reference value: 20.8 %); type: functional

COc1ccc(N(C)c2nc(/C=C/c3cccc(OC)c3)nc3ccccc23)cc1
inhibition [1]: Dose-dependent-effect | Activity [2]: Non-toxic | inhibition [3]: Active | Activity [4]: 37.3% | viability at 0.1 µM [5]: 67.2% | IC50 [6]: 100 nM | IC50 [7]: 130 nM | AUC(0-t) at 24 h [8]: 3820 ng·h/mL | inhibition in vivo at 40 mg/kg [9]: 74.2% | IC50 [10]: 440 nM | Activity [11]: 13.6% | clearance [12]: 22.2 mL/min/kg | IC50 [13]: 110 nM | Activity [14]: Active | Activity [15]: Dose-dependent-effect | Activity [16]: Non-toxic | Activity [17]: Non-toxic | inhibition [18]: Dose-dependent-effect | Activity [19]: Active | Activity [20]: 69.8% | Activity [21]: Non-toxic | Activity [22]: Non-toxic | Activity [23]: Active | Activity [24]: 27.2% | Activity [25]: Non-toxic | Vd [26]: 1.03 L/kg | Activity [27]: Dose-dependent-effect | Ratio IC50 [28]: 2.53 | Activity [29]: Dose-dependent-effect | inhibition [30]: Active | inhibition [31]: Active | inhibition [32]: Dose-dependent-effect | Activity [33]: Non-toxic | Activity [34]: Non-toxic | Activity [35]: Non-toxic | Activity [36]: Non-toxic | Activity [37]: 7.31%
